Reference: US20220362122A1, “Hair Treatment Compositions With Amine Derivatives” (ELC Management LLC, priority 2021, published 2022)
Entries after “also recorded” stand apart in the source; their conditions may differ.

Legend:
[1] = alkalizer composition; 22° C., T-F spindle, 6 rpm
[2] = alkalizer composition
[3] = active component; cited from earlier work
[4] = pH of alkalizer composition
[5] = Tensile strength: break stress of treated hair fibers; conditions: hair fibers after alkalizer composition + oxidant
keratin in hair = experiment: DSC analysis: keratin denaturation temperature of treated hair
[6] = single alkalizer compositions, Table 5
[7] = single alkalizer compositions, Table 4A

- Viscosity (cP × 10^5) [1]: 2.77 cP × 10^5
- Alkalinity [2]: 2.32 mL/g
- pH [4]: 10.58
- Denaturation Temperature (° C.) (keratin in hair; single alkalizer composition + volume 40 (12%) oxidizer developer on hair tresses, 37° C., 45 minutes, virgin hair 150.42): 147.80 °C
- ΔT (change in denaturation temperature) TVirgin-TAlkalizer (keratin in hair; [7]): 2.62
Structure (SMILES): CN(C)CCCO [DMAP, 3-Dimethyl-amino-1-propanol]
- Lifting level normalized to NH3•H2O [6]: 0.53
- Relative lifting level in percentage (LVirgin-LAlkalizer)/(LVirgin-LNaOH) [6]: 45.45%
- ΔL (change in color lifting) LVirgin-LAlkalizer [6]: −8
- lifting of natural hair color, comparison in words (single alkalizer/oxidizer mixtures): performed significantly less well than ammonium hydroxide
- pKa [3]: 9.27
- break stress / fiber damage, comparison in words [5]: cause a similar amount of damage or less damage than their primary amine analogs
- hair damage / denaturation temperature, comparison in words (keratin in hair; DSC, single alkalizer compositions): performed the closest to ammonium hydroxide; also recorded: less damaging to hair than the ammonium hydroxide composition; also recorded: a better performer than ammonia
- % Relative damage level compared to NaOH (TVirgin-TAlkalizer)/(TVirgin-TNaOH) (keratin in hair; [7]): 18.33%
- Damage level normalized to NH3•H2O (keratin in hair; [7]): 0.94
